Columns and labels:
[1] = biological target: T1, human NOD1 (Homo sapiens, UniProt Q9Y239); assay: NOD1 functional agonist assay, 293hNOD1-SEAP reporter cells; format: cell-based; settings: 293hNOD1 cells, OD above 3*O.D of negative control
T1 construct: expressed in transfected cells; host or cells: HEK293
T1 sequence (Q9Y239 1-953): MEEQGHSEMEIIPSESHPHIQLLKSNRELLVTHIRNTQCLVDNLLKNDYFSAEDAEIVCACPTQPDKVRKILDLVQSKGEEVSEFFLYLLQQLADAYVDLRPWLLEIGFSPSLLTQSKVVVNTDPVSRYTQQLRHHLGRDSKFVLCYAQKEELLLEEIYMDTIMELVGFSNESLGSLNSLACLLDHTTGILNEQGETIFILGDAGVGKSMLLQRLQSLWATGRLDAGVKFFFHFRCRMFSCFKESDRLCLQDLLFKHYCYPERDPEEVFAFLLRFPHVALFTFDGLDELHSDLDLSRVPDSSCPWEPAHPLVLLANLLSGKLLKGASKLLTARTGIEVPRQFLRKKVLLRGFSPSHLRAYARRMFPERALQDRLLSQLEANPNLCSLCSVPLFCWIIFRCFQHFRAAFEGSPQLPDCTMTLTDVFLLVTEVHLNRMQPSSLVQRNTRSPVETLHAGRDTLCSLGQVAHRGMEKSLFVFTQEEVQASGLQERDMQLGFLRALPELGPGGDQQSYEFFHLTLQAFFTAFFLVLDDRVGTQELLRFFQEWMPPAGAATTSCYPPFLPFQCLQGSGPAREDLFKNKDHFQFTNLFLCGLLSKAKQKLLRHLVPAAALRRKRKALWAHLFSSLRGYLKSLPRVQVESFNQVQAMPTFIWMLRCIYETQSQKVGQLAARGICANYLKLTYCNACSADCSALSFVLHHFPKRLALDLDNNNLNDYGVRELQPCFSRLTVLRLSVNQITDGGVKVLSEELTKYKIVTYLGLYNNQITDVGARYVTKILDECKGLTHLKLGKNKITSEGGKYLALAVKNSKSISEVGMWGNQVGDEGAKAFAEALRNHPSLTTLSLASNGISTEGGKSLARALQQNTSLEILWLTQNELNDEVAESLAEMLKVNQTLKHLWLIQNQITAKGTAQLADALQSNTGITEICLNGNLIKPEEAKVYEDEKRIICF
From the text: (§1) HEK293 cells were stably transfected with plasmid for the overexpression of the NOD1 genes and a reporter plasmid expressing a secreted embryonic alkaline phosphatase (SEAP) gene under the control of a promoter inducible by the transcription factors NF-κB and AP-1. These cells are referred herein as 293hNOD1-SEAP (for cells overexpressing the human NOD1 gene) and 293mNOD1-SEAP (for cells overexpressing the murine NOD1 gene). Upon NOD1 stimulation, these cells induce the activation of NF-κB and AP-1 and subsequently the secretion of SEAP. The reporter protein is easily detectable and measurable when using QUANTI-Blue™ (InvivoGen, San Diego, Calif.), a medium that turns purple/blue in the presence of SEAP.
(§2) The biological activity of the compounds of the invention tested using 293hNOD1 and 293mNOD1 cells. SEAP expression was measured using the commercially available SEAP detection kit (HEK-Blue™ Detection, InvivoGen). The SEAP activity in cells was quantified using the microplate reader (FLUOStar OPTIMA, BMG laboratories), the absorbance values were read using filter with excitation at 620 nm and emission at 655 nm. The results provided in Table 2 were expressed as the concentration were a significant mean optical density (OD) can be observed (above 3*O.D of negative control). As a positive control, the NOD1 pathway was stimulated with commercially available iE-DAP (InvivoGen) and C12-iE-DAP (an acylated derivative of DAP; InvivoGen). As a negative control endotoxin-free water was used. Additionally, 293 cells expressing the SEAP gene but not the NOD1 gene were used as a control.

[2] = biological target: T2, murine NOD1 (Mus musculus, UniProt Q8BHB0); assay: NOD1 functional agonist assay, 293mNOD1-SEAP reporter cells; format: cell-based; settings: 293mNOD1 cells, OD above 3*O.D of negative control
T2 construct: expressed in transfected cells; host or cells: HEK293
T2 sequence (Q8BHB0 1-953): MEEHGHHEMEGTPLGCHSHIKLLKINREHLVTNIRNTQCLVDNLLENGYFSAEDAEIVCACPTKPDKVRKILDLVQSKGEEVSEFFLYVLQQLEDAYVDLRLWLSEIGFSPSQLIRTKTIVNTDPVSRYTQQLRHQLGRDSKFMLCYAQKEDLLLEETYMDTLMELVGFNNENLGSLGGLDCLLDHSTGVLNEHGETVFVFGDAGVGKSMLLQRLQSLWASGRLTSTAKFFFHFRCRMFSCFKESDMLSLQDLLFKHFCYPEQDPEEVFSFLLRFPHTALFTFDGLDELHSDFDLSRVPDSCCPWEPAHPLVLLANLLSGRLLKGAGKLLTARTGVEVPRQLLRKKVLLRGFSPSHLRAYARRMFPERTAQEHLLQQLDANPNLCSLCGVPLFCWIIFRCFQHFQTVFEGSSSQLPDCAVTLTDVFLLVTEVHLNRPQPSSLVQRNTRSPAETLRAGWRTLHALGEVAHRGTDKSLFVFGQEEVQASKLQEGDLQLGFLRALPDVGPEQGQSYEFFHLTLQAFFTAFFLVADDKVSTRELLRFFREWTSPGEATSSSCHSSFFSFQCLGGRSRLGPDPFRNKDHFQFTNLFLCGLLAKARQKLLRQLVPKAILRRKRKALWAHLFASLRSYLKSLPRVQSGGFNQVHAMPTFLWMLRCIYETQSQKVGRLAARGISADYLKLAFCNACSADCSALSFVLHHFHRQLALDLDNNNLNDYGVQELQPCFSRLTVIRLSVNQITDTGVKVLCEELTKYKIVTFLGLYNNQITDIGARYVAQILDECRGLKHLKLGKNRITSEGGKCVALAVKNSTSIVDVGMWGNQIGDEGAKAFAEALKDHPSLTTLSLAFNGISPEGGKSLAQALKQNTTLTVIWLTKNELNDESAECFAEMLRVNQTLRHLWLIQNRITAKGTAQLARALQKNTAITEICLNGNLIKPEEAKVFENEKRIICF
From the text: as §1, §2

hNod1: concentration where a significant mean optical density (OD) can be observed [1]	mNod1: concentration where a significant mean optical density (OD) can be observed [2]	Compound
0.01 µg/mL	0.01 µg/mL	CCCCCCCCCCCC(=O)N[C@@H](C)C(=O)N[C@H](CCC(=O)N[C@H](CSC[C@H](N)C(=O)O)C(=O)N[C@H](C)C(=O)O)C(=O)O [Example 20, N^5-((S)-3-(((R)-2-amino-2-carboxyethyl)thio)-1-(((R)-1-carboxyethyl)amino)-1-oxopropan-2-yl)-N^2-(dodecanoyl-L-alanyl)-D-glutamine]
1 µg/mL	10 µg/mL	N[C@H](CCC(=O)N[C@H](CSC[C@H](N)C(=O)O)C(=O)NCC(=O)O)C(=O)O [Example 22, N^5-((S)-3-(((R)-2-amino-2-carboxyethyl)thio)-1-((carboxymethyl)amino)-1-oxopropan-2-yl)-D-glutamine]
0.0001 µg/mL	0.001 µg/mL	CCCCCCCCCCCCCC(=O)N[C@H](CCC(=O)N[C@H](CSC[C@H](N)C(=O)O)C(=O)O)C(=O)O [Example 4, N^5-((S)-2-(((R)-2-amino-2-carboxyethyl)thio)-1-carboxyethyl)-N^2-tetradecanoyl-D-glutamine]
0.001 µg/mL	0.1 µg/mL	CCCCCCCCCCCCCC(=O)N[C@@H](CC(C)C)C(=O)N[C@H](CCC(=O)N[C@H](CSC[C@H](N)C(=O)O)C(=O)O)C(=O)O [Example 10, N^5-((S)-2-(((R)-2-amino-2-carboxyethyl)thio)-1-carboxyethyl)-N^2-(tetradecanoyl-L-leucyl)-D-glutamine]
0.01 µg/mL	0.1 µg/mL	CCCCCCCCCCCC(=O)N[C@H](CCC(=O)N[C@H](CSC[C@H](N)C(=O)O)C(=O)O)C(=O)O [Example 3, N^5-((S)-2-(((R)-2-amino-2-carboxyethyl)thio)-1-carboxyethyl)-N^2-dodecanoyl-D-glutamine]
10 µg/mL	10 µg/mL	N[C@H](CCC(=O)N[C@@H](COC[C@@H](N)C(=O)O)C(=O)O)C(=O)O [Example 34, N^5-((S)-2-((R)-2-amino-2-carboxyethoxy)-1-carboxyethyl)-D-glutamine]
0.01 µg/mL	0.001 µg/mL	CCCCCCCCCCCC(=O)N[C@H](CCC(=O)N[C@H](CSC[C@H](N)C(=O)O)C(=O)N[C@H](C)C(=O)O)C(=O)O [Example 16, N^5-((S)-3-(((R)-2-amino-2-carboxyethyl)thio)-1-(((R)-1-carboxyethyl)amino)-1-oxopropan-2-yl)-N^2-dodecanoyl-D-glutamine]
0.001 µg/mL	1 µg/mL	CCCCCCCCCCCCCC(=O)N[C@@H](Cc1ccccc1)C(=O)N[C@H](CCC(=O)N[C@H](CSC[C@H](N)C(=O)O)C(=O)O)C(=O)O [Example 13, N^5-((S)-2-(((R)-2-amino-2-carboxyethyl)thio)-1-carboxyethyl)-N^2-(tetradecanoyl-L-phenylalanyl)-D-glutamine]
1 µg/mL	1 µg/mL	C[C@H](N)C(=O)N[C@H](CCC(=O)N[C@H](CSC[C@H](N)C(=O)O)C(=O)N[C@H](C)C(=O)O)C(=O)O [Example 18, N^2-(L-alanyl)-N^5-((S)-3-(((R)-2-amino-2-carboxyethyl)thio)-1-(((R)-1-carboxyethyl)amino)-1-oxopropan-2-yl)-D-glutamine]
0.1 µg/mL	1 µg/mL	CC[C@@H](C)[C@H](N)C(=O)N[C@H](CCC(=O)N[C@H](CSC[C@H](N)C(=O)O)C(=O)O)C(=O)O [Example 7, N^2-(L-alloisoleucyl)-N^5-((S)-2-(((R)-2-amino-2-carboxyethyl)thio)-1-carboxyethyl)-D-glutamine]
1 µg/mL	1 µg/mL	C[C@H](N)C(=O)N[C@H](CCC(=O)N[C@H](CSC[C@H](N)C(=O)O)C(=O)O)C(=O)O [Example 5, N^2-(L-alanyl)-N^5-((S)-2-(((R)-2-amino-2-carboxyethyl)thio)-1-carboxyethyl)-D-glutamine]
0.1 µg/mL	0.1 µg/mL	CCCCCCC(=O)N[C@@H](C)C(=O)N[C@H](CCC(=O)N[C@H](CSC[C@H](N)C(=O)O)C(=O)N[C@H](C)C(=O)O)C(=O)O [Example 19, N^5-((S)-3-(((R)-2-amino-2-carboxyethyl)thio)-1-(((R)-1-carboxyethyl)amino)-1-oxopropan-2-yl)-N^2-(heptanoyl-L-alanyl)-D-glutamine]
0.001 µg/mL	0.1 µg/mL	CCCCCCCCCCCCCC(=O)N[C@H](C(=O)N[C@H](CCC(=O)N[C@H](CSC[C@H](N)C(=O)O)C(=O)O)C(=O)O)C(C)C [Example 12, N^5-((S)-2-(((R)-2-amino-2-carboxyethyl)thio)-1-carboxyethyl)-N^2-(tetradecanoyl-L-valyl)-D-glutamine]
0.01 µg/mL	0.01 µg/mL	CCCCCCCCCCCCCC(=O)N[C@H](CCC(=O)N[C@H](CSC[C@H](N)C(=O)O)C(=O)NCC(=O)O)C(=O)O [Example 25, N^5-((S)-3-(((R)-2-amino-2-carboxyethyl)thio)-1-((carboxymethyl)amino)-1-oxopropan-2-yl)-N^2-tetradecanoyl-D-glutamine]
